# In US6172109A, “13-Thia prostaglandins for use in glaucoma therapy” (priority 1998, dated 2001):
# Entries after “also recorded” stand apart in the source; their conditions may differ.
# What was measured:
# [1] = system: New Zealand (NZA) rabbit eye; test: ocular irritation in the New Zealand (NZA) rabbit (Hackett/McDonald scoring); assay type: in vivo
# Description: Compound II and PGF2α isopropyl ester (PGF2α iPr) were tested for ocular irritation in the New Zealand (NZA) rabbit. The prostaglandins were administered in 30 μL of test formulation. Conjunctival hyperemia, swelling and discharge were evaluated using a system devised to grossly compare the irritation potential of prostaglandins in the NZA rabbit. Using the Hackett/McDonald scoring system (Hackett, R. B. and McDonald, T. O. "Eye Irritation" in Dermatotoxicology, 4th edition, Marzulli, F. N. and Maibach, H. I. editors, Hemisphere Publishing Corp., Washington D.C. (1991)), conjunctival hyperemia, conjunctival swelling, and ocular discharge were graded using a slit-lamp prior to compound instillation and 1, 2, 3, and 5 hours after topical ocular instillation of the test compound. The percentage of eyes scoring +2 or greater for all time points was calculated for each parameter (conjunctival hyperemia, conjunctival swelling, and ocular discharge). To facilitate comparison, PGF2α iPr was administered at the same time as the test agent.
# [2] = system: cynomologus monkey eyes; test: IOP-lowering effect in cynomologus monkey eyes (lasered, ocular hypertensive); assay type: in vivo
# Description: Compound II and PGF2α isopropyl ester (PGF2α iPr) were tested for IOP-lowering effect in cynomologus monkey eyes. The right eyes of the cynomologus monkeys in this study were previously given laser trabeculoplasty to induce ocular hypertension in the lasered eye. Animals had been trained to sit in restraint chairs and conditioned to accept experimental procedures without chemical restraint. IOP was determined with a pneumatonometer after light comeal anesthesia with dilute proparacaine. The test protocol included a five-dose b.i.d. treatment regimen because of the typical delayed response to prostaglandins. The test formulations were administered to the lasered right eyes, and the normal left eyes remained untreated for compound 11, or to both eyes for PGF2α isopropyl ester (PGF2α iPr). Baseline IOP values were determined prior to treatment with the test formulation, and IOP was determined 16 hours after the fourth dose for all compounds, 2, 4, and 6 hours after the fifth dose for compound II, and 1, 3 and 7 hours after the fifth dose for PGF2α iPr. Results are presented in Table 2 as the mean percent reduction of IOP from baseline +/- SEM. Prostaglandins were administered in 30 μL of test formulation.
# [3] = system: intraocular pressure (IOP); settings: cited from earlier work
# [4] = 3 μg, topical ocular, 1, 2, 3, 5 hours
# [5] = 10.0 μg, topical ocular, 1, 2, 3, 5 hours
# [6] = 1.0 μg, topical ocular, administered at the same time as the test agent
# [7] = 1.0 μg, topical ocular, second of two values, administered at the same time as the test agent
smiles,measurement,setting,value
"CC(C)OC(=O)CCC/C=C\C[C@@H]1[C@@H](SC[C@@H](O)COc2cccc(Cl)c2)[C@H](O)C[C@@H]1O [Compound II, (5Z)-(9S, 11R, 15S)-9, 11, 15-trihydroxy-16-m-chlorophenoxy-13-thia-17,18, 19, 20-tetranor-5-prostenoic acid isopropyl ester]","% Incidence, Conjunctival Hyperemia (eyes scoring +2 or greater for all time points)",[1]; [4],0%
same,"% Incidence, Conjunctival Swelling (eyes scoring +2 or greater for all time points)",[1]; [4],30%
same,"% Incidence, Discharge (eyes scoring +2 or greater for all time points)",[1]; [4],0%
same,"% Incidence, Conjunctival Hyperemia (eyes scoring +2 or greater for all time points)",[1]; [5],23%
same,"% Incidence, Conjunctival Swelling (eyes scoring +2 or greater for all time points)",[1]; [5],33%
same,"% Incidence, Discharge (eyes scoring +2 or greater for all time points)",[1]; [5],5%
same,ocular irritation / ocular side effects (in words),[1]; Table 1,attenuates the ocular side effects; also recorded: low incidence of side effects
same,ocular irritation / ocular side effects (in words),"[1]; Table 1, listed as 11",low incidence of ocular irritation
same,Percent IOP Reduction +/-SEM,"[2]; 1.0 μg b.i.d., 2 hours after fifth dose (2/5), baseline IOP 31.6 mm Hg",13.9 +/- 6.8%
same,Percent IOP Reduction +/-SEM,"[2]; 1.0 μg b.i.d., 4 hours after fifth dose (4/5), baseline IOP 31.6 mm Hg",8.1 +/- 6.6%
same,Percent IOP Reduction +/-SEM,"[2]; 1.0 μg b.i.d., 6 hours after fifth dose (6/5), baseline IOP 31.6 mm Hg",10 +/- 6.2%
same,Percent IOP Reduction +/-SEM,"[2]; 1.0 μg b.i.d., 16 hours after fourth dose (16/4), baseline IOP 31.6 mm Hg",4.6 +/- 6.1%
same,Percent IOP Reduction +/-SEM,"[2]; 3.0 μg b.i.d., 2 hours after fifth dose (2/5), baseline IOP 32.2 mm Hg",23.3%
same,Percent IOP Reduction +/-SEM,"[2]; 3.0 μg b.i.d., 4 hours after fifth dose (4/5), baseline IOP 32.2 mm Hg",24.2 +/- 3.6%
same,Percent IOP Reduction +/-SEM,"[2]; 3.0 μg b.i.d., 6 hours after fifth dose (6/5), baseline IOP 32.2 mm Hg",24.9 +/- 3.4%
same,Percent IOP Reduction +/-SEM,"[2]; 3.0 μg b.i.d., 16 hours after fourth dose (16/4), baseline IOP 32.2 mm Hg",18.0 +/- 3.0%
same,IOP reduction (in words),"[2]; for the time period tested, Table 2",significant degree of IOP reduction
"CCCCC[C@H](O)/C=C/[C@@H]1[C@@H](C/C=C\CCCC(=O)OC(C)C)[C@@H](O)C[C@H]1O [PGF2α iPr, PGF2α isopropyl ester, reference compound]","% Incidence, Conjunctival Hyperemia (eyes scoring +2 or greater for all time points)",[1]; [6],58%
same,"% Incidence, Conjunctival Swelling (eyes scoring +2 or greater for all time points)",[1]; [6],67%
same,"% Incidence, Discharge (eyes scoring +2 or greater for all time points)",[1]; [6],47%
same,"% Incidence, Conjunctival Hyperemia (eyes scoring +2 or greater for all time points)",[1]; [7],58%
same,"% Incidence, Conjunctival Swelling (eyes scoring +2 or greater for all time points)",[1]; [7],63%
same,"% Incidence, Discharge (eyes scoring +2 or greater for all time points)",[1]; [7],48%
same,ocular irritation / ocular side effects (in words),[1]; Table 1,"relatively high incidence of hyperemia, conjunctival swelling and discharge"
same,Percent IOP Reduction +/-SEM,"[2]; 1.0 μg b.i.d., both eyes, 1 hour after fifth dose (1/5), baseline IOP 34.8 mm Hg",27.6%
same,Percent IOP Reduction +/-SEM,"[2]; 1.0 μg b.i.d., both eyes, 3 hours after fifth dose (3/5), baseline IOP 34.8 mm Hg",38 +/- 1.7%
same,Percent IOP Reduction +/-SEM,"[2]; 1.0 μg b.i.d., both eyes, 7 hours after fifth dose (7/5), baseline IOP 34.8 mm Hg",25.6 +/- 14.4%
same,Percent IOP Reduction +/-SEM,"[2]; 1.0 μg b.i.d., both eyes, 16 hours after fourth dose (16/4), baseline IOP 34.8 mm Hg",5.8 +/- 4.0%
CCCCC[C@H](O)/C=C/[C@@H]1[C@@H](C/C=C\CCCC(=O)O)[C@@H](O)C[C@H]1O [PGF2α],IOP lowering (in words),"[3]; after topical ocular instillation, background",known to lower intraocular pressure (IOP)
same,side effects (in words),[3]; in vivo,can cause conjunctival hyperemia and/or edema as well as inflammation
